Consider 1 compound from patent US8436159B2, “Glyphosate resistant class I 5-endolpyruvylshikimate-3-phosphate synthase (EPSPS)” (Monsanto Technology LLC, priority 2003, dated 2013).

Numbering of substitutions follows the chain as printed.

Experiment [1] addresses T1, maize (Zea mays) class I EPSPS variant TIPT (T102I, P106T), pMON58452, ZmTIPT SEQ ID NO:38 (Zea mays, UniProt O24566, P106T/T102I).
T1 construct: pMON58452
T1 sequence (O24566 1-444 T102I/P106T): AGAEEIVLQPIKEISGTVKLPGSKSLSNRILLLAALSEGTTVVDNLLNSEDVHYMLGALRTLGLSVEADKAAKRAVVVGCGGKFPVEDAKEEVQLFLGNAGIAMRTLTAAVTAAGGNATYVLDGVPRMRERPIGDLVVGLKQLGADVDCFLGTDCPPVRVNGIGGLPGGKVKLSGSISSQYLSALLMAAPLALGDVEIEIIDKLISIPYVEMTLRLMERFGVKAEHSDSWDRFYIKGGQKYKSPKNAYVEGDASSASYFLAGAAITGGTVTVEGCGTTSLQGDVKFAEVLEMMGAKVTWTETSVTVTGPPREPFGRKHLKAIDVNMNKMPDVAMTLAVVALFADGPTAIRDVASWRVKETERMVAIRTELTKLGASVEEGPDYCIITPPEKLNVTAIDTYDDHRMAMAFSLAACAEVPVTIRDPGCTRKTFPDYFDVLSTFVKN
The experiment is described as follows: EPSPS steady-state kinetics, TIPT variant. It counts as biochemical. From the text: (§1) The double variants of the present invention were made using pMON58452 (FIG. 5) as the template. This pMON58452 EPSPS gene template contains the maize EPSPS double variant T102I, P106T (TIPT) that was constructed by mutagenesis of pMON70467 with the mutagenesis primers mEmut-9-U and mEmut-10-L. The various mutagenesis primer sequences were designed and then were synthesized by Invitrogen Corp., Custom Primers and used in combination in a PCR to create the variant EPSPS coding sequences. The PCR was set up in a 50 μl reaction in the following manner: dH2O 38 μl; 2 mM dNTP 1 μL; 10× buffer 5 μL; pMON58452 1 μL (10 ng); primer-U 2 μL; primer-L 2 μL; pfu Turbo enzyme 1 μL. PCR was carried out on a MJ Research PTC-200 thermal cycler using the following program: Step 1—94° C. for 30 seconds; Step 2—94° C. for 30 seconds; Step 3—55° C. for 1 minute; Step 4—68° C. for 14 minute; Step 5—go to step 2, 16 times; Step 6—End. At the end of the PCR, 1 μl of the restriction enzyme DpnI was added to each 50 μl of PCR reaction and the mixture was incubated at 37° C. for 1 hour. […]

Experiment [2] has as its target T2, maize (Zea mays) class I EPSPS variant TIPM (T102I, P106M), pMON42484 (Zea mays, UniProt O24566, P106M/T102I).
T2 construct: pMON42484
T2 sequence (O24566 1-444 T102I/P106M): T1 sequence (O24566 1-444 T102I/P106T) with T106M
Kind of experiment: EPSPS steady-state kinetics, TIPM variant. It is filed as biochemical.
Description: as §1

A further experiment concerns E. coli EPSPS, native. The conditions noted are these: native enzyme; read-out: apparent Ki for glyphosate; cited from earlier work.

On to `O=C(O)CNCP(=O)(O)O` [glyphosate, N-phosphonomethylglycine], for which the Ki in experiment [1] was 101 ± 12.7 µM; in experiment [2] it was 37200 ± 1500 µM; in the experiment with E. coli EPSPS, native it was 0.5 µM.
